Target: T1, hROMK (hKir1.1) (Homo sapiens, UniProt P48048)
T1 construct: expressed in transfected cells
T1 sequence (P48048 1-391): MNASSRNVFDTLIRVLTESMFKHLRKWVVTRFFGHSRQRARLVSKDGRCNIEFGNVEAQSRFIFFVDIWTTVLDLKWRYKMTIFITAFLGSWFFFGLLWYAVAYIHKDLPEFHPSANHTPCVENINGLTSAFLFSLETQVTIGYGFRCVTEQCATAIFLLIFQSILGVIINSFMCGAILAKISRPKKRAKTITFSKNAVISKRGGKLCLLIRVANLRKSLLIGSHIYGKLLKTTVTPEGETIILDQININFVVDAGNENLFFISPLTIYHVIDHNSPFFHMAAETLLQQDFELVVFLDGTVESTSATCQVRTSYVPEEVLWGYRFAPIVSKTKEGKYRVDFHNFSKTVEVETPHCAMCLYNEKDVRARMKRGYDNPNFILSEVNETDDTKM
Assay: Thallium Flux Assay (ROMK channel functional thallium flux assay)
Format: cell-based
Conditions: HEK293 cells stably expressing hROMK (hKir1.1); FluxOR thallium flux, FLIPR-Tetra, 30 min compound incubation; read-out: ROMK TI IC50
Experimental: The following Thallium Flux Assay was performed on each of the final product compounds in the Examples.
HEK293 cells stably expressing hROMK (hKir1.1) were grown at 37° C. in a 10% CO2 humidified incubator in complete growth media: Dulbecco's Modified Eagle Medium supplemented with non-essential amino acids, Penicillin/Streptomycin/Glutamine, G418 and FBS. At >80% confluency, the media was aspirated from the flask and rinsed with 10 mL calcium/magnesium-free PBS. […] To dislodge the cell, the side of the flask was gently banged with one's hand. The cells completely titrated and then the cells were transferred to 25 mL complete media, centrifuged at 1,500 rpm for 6 min followed by resuspension in complete growth media and determine cell concentration. […] Under ideal growth conditions and appropriate tissue culture practices, this cell line is stable for 40-45 passages.
• FluxOR™ Reagent (Component A) • FluxOR™ Assay Buffer (Component B)—10× Concentrate • PowerLoad™ Concentrate (Component C)—100× Concentrate • Probenecid (Component D)—Lyophilized sample is kept at −20° C. Water soluble, 100× after solubilization in 1 mL water. […] Store at 4° C. • Thallium sulfate (Tl2SO4) Concentrate (Component G)—50 mM in water. Store at 4° C. • DMSO (dimethyl sulfoxide, Component H)—1 mL (100%)
Can be stored at room temperature • Stimulant Buffer (prepared at 5× final concentration in 1×FluxOR™ Chloride-Free Buffer): 7.5 mM thallium sulfate and 0.75 mM potassium sulfate (to give a final assay concentration of 3 mM Thallium/0.3 mM potassium). Store at 4° C. when not in use. If kept sterile, this solution is good for months.
The ROMK channel functional thallium flux assay was performed in 384 wells, using the FLIPR-Tetra instrument. HEK-hKir1.1 cells were seeded in Poly-D-Lysine microplates and kept in a 37° C.-10% CO2 incubator overnight. On the day of the experiment, the growth media was replaced with the FluxOR™ reagent loading buffer and incubated, protected from light, at ambient temperature (23-25° C.) for 90 min. The loading buffer was replaced with assay buffer±test compound followed by 30 min incubation at ambient temperature, where the thallium/potassium stimulant was added to the microplate.
1. Seed HEK-hKir1.1 cells (50 μl at 20,000 cells/well) in 384-well PDL coated Microplates 2. Allow cells to adhere overnight in humidified 37° C./10% CO2 incubator 3. Completely remove cell growth media from microplate and replace with 25 μl loading buffer 4. Incubate Microplate at room temperature, protected form light, for 90 min 5. Remove loading buffer and replace with 25 μl 1× Assay Buffer±test compound. 6. Incubate microplate at room temperature, protected from light, for 30 min 7. […] Excitation=400 nm, Emission=460 & 580 nm. Collect data for ˜10 min.
The fluorescence intensity of wells containing 3 μM of a standard control ROMK inhibitor of the present invention was used to define the ROMK-sensitive component of thallium flux. Fluorescence in the presence of test compounds was normalized to control values to provide % fluorescence change.

With `Cc1ccc(N2CCC3(CCN(C[C@H](O)c4ccc5c(c4C)COC5=O)CC3)CC2)nn1` [Example 124, (R)-5-(1-hydroxy-2-(9-(6-methylpyridazin-3-yl)-3,9-diazaspiro[5.5]undecan-3-yl)ethyl)-4-methylisobenzofuran-1(3H)-one] the IC50 was 37.1 nM.
With `Cc1c([C@@H](O)CN2CCC3(CC2)CCN(c2ccc(OC(F)(F)F)cc2)C3=O)ccc2c1COC2=O` [Example 32, (R)-8-(2-hydroxy-2-(4-methyl-1-oxo-1,3-dihydroisobenzofuran-5-yl)ethyl)-2-(4-(trifluoromethoxy)phenyl)-2,8-diazaspiro[4.5]decan-1-one] the IC50 was 465 nM.
For `Cc1c([C@@H](O)CN2CCC3(CC2)CCN(c2cncnc2)C3=O)ccc2c1COC2=O` [Example 37, (R)-8-(2-hydroxy-2-(4-methyl-1-oxo-1,3-dihydroisobenzofuran-5-yl)ethyl)-2-(pyrimidin-5-yl)-2,8-diazaspiro[4.5]decan-1-one], the IC50 was 676 nM.
Molecule `Cc1c([C@@H](O)CN2CCC3(CCCN(c4ccncc4)C3=O)CC2)ccc2c1COC2=O` [Example 85, (R)-9-(2-hydroxy-2-(4-methyl-1-oxo-1,3-dihydroisobenzofuran-5-yl)ethyl)-2-(pyridin-4-yl)-2,9-diazaspiro[5.5]undecan-1-one] has an IC50 of 801 nM.
`Cc1c([C@@H](O)CN2CCC3(CC2)CCN(c2cc(C(F)(F)F)ncn2)C3=O)ccc2c1COC2=O` [Example 87, (R)-8-(2-hydroxy-2-(4-methyl-1-oxo-1,3-dihydroisobenzofuran-5-yl)ethyl)-2-(6-(trifluoromethyl)pyrimidin-4-yl)-2,8-diazaspiro[4.5]decan-1-one] gave an IC50 of 643 nM.
`Cc1c([C@@H](O)CN2CCC3(CC2)CCN(c2nc(Cl)ns2)C3)ccc2c1COC2=O` [Example 5, (R)-5-(2-(2-(3-chloro-1,2,4-thiadiazol-5-yl)-2,8-diazaspiro[4.5]decan-8-yl)-1-hydroxyethyl)-4-methylisobenzofuran-1(3H)-one] showed an IC50 of 64.8 nM.
`Cc1c([C@@H](O)CN2CCC3(CC2)CCN(c2cnsc2)C3=O)ccc2c1COC2=O` [Example 72, (R)-8-(2-hydroxy-2-(4-methyl-1-oxo-1,3-dihydroisobenzofuran-5-yl)ethyl)-2-(isothiazol-4-yl)-2,8-diazaspiro[4.5]decan-1-one] gave an IC50 of 20 nM.
For `Cc1c([C@@H](O)CN2CCC3(CC2)CCN(c2cn(C)c(=O)cn2)C3=O)ccc2c1COC2=O` [Example 94, (R)-8-(2-hydroxy-2-(4-methyl-1-oxo-1,3-dihydroisobenzofuran-5-yl)ethyl)-2-(4-methyl-5-oxo-4,5-dihydropyrazin-2-yl)-2,8-diazaspiro[4.5]decan-1-one], the IC50 was 272 nM.
Work on `Cc1cnsc1N1CCC2(CCN(C[C@H](O)c3ccc4c(c3C)COC4=O)CC2)C1=O` [Example 104, (R)-8-(2-hydroxy-2-(4-methyl-1-oxo-1,3-dihydroisobenzofuran-5-yl)ethyl)-2-(4-methylisothiazol-5-yl)-2,8-diazaspiro[4.5]decan-1-one] yielded an IC50 of 65.5 nM.
`Cc1c([C@@H](O)CN2CCC3(CC2)CC(=O)N(c2ccns2)C3)ccc2c1COC2=O` [Example 61, (R)-8-(2-hydroxy-2-(4-methyl-1-oxo-1,3-dihydroisobenzofuran-5-yl)ethyl)-2-(isothiazol-5-yl)-2,8-diazaspiro[4.5]decan-3-one] showed an IC50 of 547 nM.
With `CCOC(=O)c1cc(N2CCC3(CCN(C[C@H](O)c4ccc5c(c4C)COC5=O)CC3)C2=O)on1` [Example 64, (R)-ethyl 5-(8-(2-hydroxy-2-(4-methyl-1-oxo-1,3-dihydroisobenzofuran-5-yl)ethyl)-1-oxo-2,8-diazaspiro[4.5]decan-2-yl)isoxazole-3-carboxylate] the IC50 was 241 nM.
With `COc1ncc(N2CCC3(CCN(C[C@H](O)c4ccc5c(c4C)COC5=O)CC3)C2=O)cn1` [Example 40, (R)-8-(2-hydroxy-2-(4-methyl-1-oxo-1,3-dihydroisobenzofuran-5-yl)ethyl)-2-(2-methoxypyrimidin-5-yl)-2,8-diazaspiro[4.5]decan-1-one] the IC50 was 142 nM.
With `COc1ccc(N2CCC3(CCN(C[C@H](O)c4cc(OC)c(C#N)cn4)CC3)C2)nn1` [Example 6, (S)-6-(1-hydroxy-2-(2-(6-methoxypyridazin-3-yl)-2,8-diazaspiro[4.5]decan-8-yl)ethyl)-4-methoxynicotinonitrile] the IC50 was 476 nM.
`Cc1c([C@@H](O)CN2CCC3(CC2)CCN(c2cc(-c4ccccc4)no2)C3=O)ccc2c1COC2=O` [Example 34, (R)-8-(2-hydroxy-2-(4-methyl-1-oxo-1,3-dihydroisobenzofuran-5-yl)ethyl)-2-(3-phenylisoxazol-5-yl)-2,8-diazaspiro[4.5]decan-1-one] was tested, and the IC50 was 505 nM.
`COc1cnc(N2CCC3(CCN(C[C@H](O)c4ccc5c(c4C)COC5=O)CC3)CC2)nc1` [Example 118, (R)-5-(1-hydroxy-2-(9-(5-methoxypyrimidin-2-yl)-3,9-diazaspiro[5.5]undecan-3-yl)ethyl)-4-methylisobenzofuran-1(3H)-one] gave an IC50 of 125 nM.
Molecule `Cc1c([C@@H](O)CN2CCC3(CC2)CCN(c2cnn(C)c(=O)c2)CC3)ccc2c1COC2=O` [Example 110, (R)-5-(9-(2-hydroxy-2-(4-methyl-1-oxo-1,3-dihydroisobenzofuran-5-yl)ethyl)-3,9-diazaspiro[5.5]undecan-3-yl)-2-methylpyridazin-3(2H)-one] has an IC50 of 279 nM.
`Cc1c([C@@H](O)CN2CCC3(CC2)CCN(c2cc(C)c(=O)n(C)n2)C3=O)ccc2c1COC2=O` [Example 52, (R)-2-(1,5-dimethyl-6-oxo-1,6-dihydropyridazin-3-yl)-8-(2-hydroxy-2-(4-methyl-1-oxo-1,3-dihydroisobenzofuran-5-yl)ethyl)-2,8-diazaspiro[4.5]decan-1-one] gave an IC50 of 427 nM.
`COc1nsc(N2CCOC3(CCN(C[C@H](O)c4ccc5c(c4C)COC5=O)CC3)C2=O)n1` [Example 27, (R)-9-(2-hydroxy-2-(4-methyl-1-oxo-1,3-dihydroisobenzofuran-5-yl)ethyl)-4-(3-methoxy-1,2,4-thiadiazol-5-yl)-1-oxa-4,9-diazaspiro[5.5]undecan-5-one] was tested, and the IC50 was 25 nM.
Molecule `Cc1c([C@H](O)CN2CCC3(CC2)CCN(c2ccc(=O)n(C)n2)C3=O)ccc2c1COC2=O` (single isomer, unassigned) [Example 57] has an IC50 of 252 nM.
In the case of `Cc1c([C@@H](O)CN2CCC3(CC2)CCN(c2cccnn2)CC3)ccc2c1COC2=O` [Example 139, (R)-5-(1-hydroxy-2-(9-(pyridazin-3-yl)-3,9-diazaspiro[5.5]undecan-3-yl)ethyl)-4-methylisobenzofuran-1(3H)-one], the IC50 is reported as 251 nM.
Molecule `[2H]C([2H])(N1CCC2(CCN(c3ccc(=O)n(C)n3)C2=O)CC1)[C@]([2H])(O)c1ccc2c(c1C)COC2=O` (single isomer, unassigned) [Example 58] has an IC50 of 36 nM.
Molecule `Cc1c([C@@H](O)CN2CCC3(CC2)CCN(c2cnc(Cl)cn2)CC3)ccc2c1COC2=O` [Example 132, (R)-5-(2-(9-(5-chloropyrazin-2-yl)-3,9-diazaspiro[5.5]undecan-3-yl)-1-hydroxyethyl)-4-methylisobenzofuran-1(3H)-one] has an IC50 of 22.8 nM.
Work on `Cc1c([C@@H](O)CN2CCC3(CC2)CN(c2ccc(=O)n(C)n2)CCO3)ccc2c1COC2=O` [Example 17, (R)-6-(9-(2-hydroxy-2-(4-methyl-1-oxo-1,3-dihydroisobenzofuran-5-yl)ethyl)-1-oxa-4,9-diazaspiro[5.5]undecan-4-yl)-2-methylpyridazin-3(2H)-one] yielded an IC50 of 88.3 nM.

— patent US20170275298A1, “INHIBITORS OF THE RENAL OUTER MEDULLARY POTASSIUM CHANNEL” (Merck Sharp & Dohme Corp., priority 2014, published 2017)
